# Results taken from patent US8889902B2, “Acetylsalicylic acid salts” (priority 2009, dated 2014).
# Key:
# platelet aggregation = assay: Platelet aggregation in vitro, whole blood impedance aggregometry (Multiplate); assay type: cell-based, healthy donor; conditions: 10^−4
# Experimental: Platelet aggregation was studied using whole blood impedance aggregometry on Multiplate (Multiple Platelet Function Analyzer, Dynabyte Medical, Germany) (Toth O et al, Thromb Haemost 2006; 96:781-788. […] Blood samples for in vitro experiment were collected from healthy donor B. […] In the ex vivo experiment blood was collected into plastic tubes covered with hirudin (Dynabyte Medical, Germany) from narcotized rats that were treated for 3 previous days with test substances p.o. The measurements were performed according to modified Dynabyte Medical protocol. […] After 5 min incubation and stirring at 37° C., measurements were initiated by adding of the appropriate agonist solution (sourced from Dynabyte Medical, Germany): 1) adenosine diphosphate (ADP)-ADP-Test. ADP stimulates platelet activation by the ADP receptors (P2Y 12 and other). […] 3) ADP HS test (prostaglandin E1 in combination with ADP). […] Aggregation curves were recorded for 6 min. and analyzed using Dynabyte Medical software. We calculated the following parameters of platelet aggregation: […] It is affected by the total height of the aggregation curve as well as by its slope and is best suited to express the overall platelet activity.
# [1] = system: adjuvant arthritis induced by Freund's adjuvant; assay: Adjuvant arthritis: paw volume and ankle joint; assay type: in vivo, Wistar rats; conditions: 100 mg/kg daily p.o.
# From the text: Our experiments were scheduled to test the influence of MASA on the progress of adjuvant arthritis in comparison with MD and ASA. […] Each standard cage housed 7 rats with unlimited access to drinking water and granulated standard feed. […] All efforts were made to minimize animal suffering and to reduce the number of animals used. A modified standard procedure for inducting and evaluating the progress of chronic adjuvant arthritis was used (Bellavite P, Ortolani R, Conforti A, Immunology and Homeopathy. 3. Experimental Studies on Animal Models, Advance Access Publication 2.05, 2006, 171-186). […] The solutions of test substances were prepared ex tempore. […] Test solutions were introduced to animal p.o. by catheter into the stomach. […] The effects of test substances were evaluated using the following criteria: The oedema, i.e. the volume of hind paw was measured by oncometer. The percentage of prevention (inhibition of oedema) was calculated according to formula: P(%)=(Vc−Vt)/Vc×100, where Vc—paw volume in control group Vt—paw volume in test group P—Prevention in % (inhibition of oedema).
# rat ear skin temperature = assay: Ear skin temperature rise caused by NA, s.c. administration; assay type: in vivo, Wistar rats
# Experimental: Male Wistar rats (280-330 g) were used. Animals were held in groups of 6 in climatized rooms at 22±1° C., relative humidity 60±5%, and 12/12-hour light/dark cycle with free access to drinking water and feed (R3—Lactamin AB, Sweden). For registration of changes in skin temperature of intact rats contactless temperature recording method was used (Papaliodis D et al, Br J Pharmacol 2008; 153:1382-1387). Temperature measurements were performed with a hand-held infrared thermometer (Model Proscan 510, TFA-Dostman). Animals were habituated to handling and to the infrared probe for 3 days before use. Temperature readings from the dorsal side of each ear were recorded without anaesthesia at beginning and during experiment. The ear temperature was measured every 5 min. for a period of up to 60 min. The animals were returned to their cages between measurements. NA, MD and MASA were dissolved in saline and pH was corrected immediately before usage. LA (MK 0524, Cayman Chemicals) was first dissolved in DMSO and then freshly diluted with 0.9% NaCl, on each day of the experiment. The rate of NA and LA combination was based on Summary of Product Characteristics for Tredaptive™ (nicotinic acid/laropiprant) 1000 mg/20 mg modified-release tablets.
# The influence of LA, MD or MASA alone on skin temperature was checked. Each investigated compound was introduced s.c. simultaneously with NA as LA+NA [0] or 30 min in advance to NA as LA+NA [30].
# [2] = system: WBC, CRP, CIC in adjuvant arthritis; assay: Adjuvant arthritis: WBC, CRP and CIC in blood; assay type: in vivo, Wistar rats; conditions: 100 mg/kg daily p.o.
# Experimental: Our experiments were scheduled to test the influence of MASA on the progress of adjuvant arthritis in comparison with MD and ASA. Experiments were conducted on Wistar rats with starting body mass of 153-185 g. Rats were kept in climatized rooms at 22±1° C., relative humidity 60±5% and 12/12-hour light/darkness cycle. Each standard cage housed 7 rats with unlimited access to drinking water and granulated standard feed. All experiments were carried out in accordance with the European Community Council's Directive of 24 Nov. 1986 (86/609/EEC) relative to experimental animal care. All efforts were made to minimize animal suffering and to reduce the number of animals used.
# A modified standard procedure for inducting and evaluating the progress of chronic adjuvant arthritis was used (Bellavite P, Ortolani R, Conforti A, Immunology and Homeopathy. 3. Experimental Studies on Animal Models, Advance Access Publication 2.05, 2006, 171-186). Rats were injected into the hind foot pad 0.1 ml and intraperitonealy with 0.05 ml of complete Freund's adjuvant solution.
# Hematological indices were determined by standard methods on hematological analyzer ? PENTRA 120 ? , CRP was determined on ? INTEGRA 400+ ? . Levels of CIC in blood serum were determined spectrometrically, using […].
compound,measurement,setting,value
"C[N+](C)(C)NCCC(=O)[O-].O.O [MD, 3-(Trimethylammonioamino)propanoate dihydrate]",AUC,platelet aggregation; AA induced,1050 ± 37.6^& AU*min
same,Amax,platelet aggregation; AA induced,179.5 ± 7.3^& AU
same,AUC,platelet aggregation; ADP induced,869 ± 36.3 AU*min
same,Amax,platelet aggregation; ADP induced,153.2 ± 6.1 AU
same,AUC,platelet aggregation; PGE1 + ADP induced,587 ± 37.4^2&& AU*min
same,Amax,platelet aggregation; PGE1 + ADP induced,101.4 ± 2.2^2&& AU
same,Dimensions of ankle joint on Day 14,[1],7.0 ± 0.13 mm
same,Dimensions of ankle joint on Day 28,[1],7.0 ± 0.13 mm
same,Paw volume on Day 14,[1],2.60 ± 0.21 mL
same,Paw volume on Day 28,[1],1.93 ± 0.13 mL
same,"Prevention %, paw volume Day 14",[1]; vs AdA,−7%
same,"Prevention %, paw volume Day 28",[1]; vs AdA,13%
same,Maximum temperature,rat ear skin temperature; 45 mg/kg s.c. alone,29.6 ± 0.31^$$$ ° C.
same,"CIC units, Day 14",[2],11.8 ± 2.22 units
same,"CIC units, Day 28",[2],8.6 ± 0.93 units
same,"CRP, Day 14",[2],0.26 ± 0.02 mg/L
same,"CRP, Day 28",[2],0.17 ± 0.02 mg/L
same,"Leucocytes (WBC), Day 14",[2],14.42 ± 1.41^# 10^3/mm^3
same,"Leucocytes (WBC), Day 28",[2],15.55 ± 1.26^# 10^3/mm^3
"O=C(O)c1cccnc1 [NA, nicotinic acid]",AUC,platelet aggregation; AA induced,1010 ± 41.7 AU*min
same,Amax,platelet aggregation; AA induced,161.1 ± 9.4 AU
same,AUC,platelet aggregation; ADP induced,859 ± 62.5 AU*min
same,Amax,platelet aggregation; ADP induced,148.0 ± 5.2^1 AU
same,AUC,platelet aggregation; PGE1 + ADP induced,862 ± 51.9 AU*min
same,Amax,platelet aggregation; PGE1 + ADP induced,146.7 ± 8.6 AU
same,Maximum temperature,rat ear skin temperature; NA 15 mg/kg s.c.,32.2 ± 0.42 °C
same,maximal temperature increase from baseline,"rat ear skin temperature; NA 15 mg/kg s.c., at 10 min",2.32±0.37 °C
same,maximal temperature increase in comparison with Solvent group,"rat ear skin temperature; NA 15 mg/kg s.c., at 10 min",2.57±0.43
same,"Increase, %","rat ear skin temperature; NA 15 mg/kg s.c., effect of NA = 100",100%
